In publication PMC11589570, “Critical assessment of LC3/GABARAP ligands used for degrader development and ligandability of LC3/GABARAP binding pockets” (Nature Communications, 2024):
Values joined by “and” are separate entries in the source; they are usually repeats but may differ in a detail not shown here. Equal values may be shown once.

Tests used:
LC3C = LC3C (Homo sapiens, UniProt Q9BXW4); assay: FP assay with Cy5-labelled p62 LIR tracer (protein titration and tracer displacement); type: binding; conditions: two replicate columns per compound
LC3C, sequence (Q9BXW4 1-126): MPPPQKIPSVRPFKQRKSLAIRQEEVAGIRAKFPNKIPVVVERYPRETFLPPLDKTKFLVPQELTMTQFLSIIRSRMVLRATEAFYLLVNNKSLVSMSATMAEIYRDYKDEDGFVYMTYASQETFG

GABARAPL2 = GABARAPL2 (Homo sapiens, UniProt P60520); assay: as above; conditions: for normalized FP signal, p62 LIR tracer displacement: GABARAPL2
GABARAPL2, sequence (P60520 whole entry): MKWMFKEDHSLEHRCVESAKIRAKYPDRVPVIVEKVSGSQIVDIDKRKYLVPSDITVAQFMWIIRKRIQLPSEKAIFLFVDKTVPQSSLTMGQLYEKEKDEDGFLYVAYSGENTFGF

U2OS cells = assay: Cell growth assay (IncuCyte confluence over 72 h); type: cell-based; design: key to U2OS cell growth: % of well area covered by cells (confluence)
Summary of the method: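 U2OS cells were grown in DMEM with 10% FBS for 24 h before treatment. Confluence was then tracked by IncuCyte phase imaging over 72 h and expressed as % of well area covered by cells. Each point is the average of three wells.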

[1] = log10 concentration [M] -3.82391
[2] = log10 concentration [M] -4.1549
[3] = log10 concentration [M] -4.60206
[4] = log10 concentration [M] -5.30103
[5] = log10 concentration [M] -5.69897
[6] = log10 concentration [M] -6.22185
[7] = log10 concentration [M] -6.69897
[8] = log10 concentration [M] -7.30103
[9] = log10 concentration [M] -7.79588
[10] = log10 concentration [M] -8.08092

How did the “compound titration LC3C (displacement curve, FP signal)” value (from here on “compound titration LC3C”) (LC3C; [1]) turn out when `CO[C@@H]1[C@@H](OC(N)=O)[C@@H](O)[C@H](Oc2ccc3c(O)c(NC(=O)c4ccc(O)c(CC=C(C)C)c4)c(=O)oc3c2C)OC1(C)C` [compound 12, Novobiocin] was run?
Its value is 67.8 and 62.8.

And the “compound titration LC3C” value (LC3C; [2])?
Its value is 76.2 and 80.2.

What about the “compound titration LC3C” value (LC3C; [3]) of the same compound?
Its value is 85.4 and 91.6.

What about the “compound titration LC3C” value (LC3C; log10 concentration [M] -5) of the same compound?
Its value is 91 and 93.

What about the “compound titration LC3C” value (LC3C; [4]) of the same compound?
The value was 89.4 and 92.6.

And the “compound titration LC3C” value (LC3C; [5])?
Its value is 84.2 and 84.8.

What about the “compound titration LC3C” value (LC3C; [6]) of the same compound?
The value was 92.6 and 89.

And the “compound titration LC3C” value (LC3C; [7])?
The value was 89.2 and 92.2.

What about the “compound titration LC3C” value (LC3C; [8]) of the same compound?
The value was 89.8 and 92.6.

And the “compound titration LC3C” value (LC3C; [9])?
The value was 86 and 89.6.

And the “compound titration LC3C” value (LC3C; [10])?
Its value is 86.2 and 93.6.

What about the Ki (GABARAPL2) of the same compound?
Its Ki is 681 µM.

What about the “normalized FP signal, p62 LIR tracer displacement” value (“normalized FP signal” below) (GABARAPL2; [1]) of the same compound?
The value was 88.8 and 79.6.

What about the “normalized FP signal” value (GABARAPL2; [2]) of the same compound?
Its value is 90.4 and 93.6.

What about the “normalized FP signal” value (GABARAPL2; [3]) of the same compound?
Its value is 94.8 and 107.2.

What about the “normalized FP signal” value (GABARAPL2; log10 concentration [M] -5) of the same compound?
The value was 97.2 and 105.2.

And the “normalized FP signal” value (GABARAPL2; [4])?
Its value is 95.6 and 104.8.

What about the “normalized FP signal” value (GABARAPL2; [5]) of the same compound?
The value was 86.4 and 89.6.

What about the “normalized FP signal” value (GABARAPL2; [6]) of the same compound?
The value was 100.4 and 99.2.

And the “normalized FP signal” value (GABARAPL2; [7])?
The value was 102 and 95.6.

What about the “normalized FP signal” value (GABARAPL2; [8]) of the same compound?
The value was 100.8 and 96.8.

And the “normalized FP signal” value (GABARAPL2; [9])?
Its value is 100 and 94.8.

What about the “normalized FP signal” value (GABARAPL2; [10]) of the same compound?
Its value is 102.4 and 106.8.

And the U2OS cell growth (U2OS cells; 100 nM, time 10 h)?
The U2OS cell growth was 31.1029 and 33.4179 and 23.7087.

What about the U2OS cell growth (U2OS cells; 100 nM, time 0 h) of the same compound?
Its U2OS cell growth is 19.136 and 22.8325 and 13.4185.

What about the U2OS cell growth (U2OS cells; 100 nM, time 2 h) of the same compound?
The U2OS cell growth was 26.0593 and 27.2796 and 22.6674.

What about the U2OS cell growth (U2OS cells; 100 nM, time 4 h) of the same compound?
Its U2OS cell growth is 30.3299 and 25.4304 and 21.2335.

And the U2OS cell growth (U2OS cells; 100 nM, time 6 h)?
Its U2OS cell growth is 27.5347 and 27.1928 and 26.8694.

And the U2OS cell growth (U2OS cells; 100 nM, time 8 h)?
Its U2OS cell growth is 31.7442 and 25.9761 and 21.578.

And the U2OS cell growth (U2OS cells; 500 nM, time 0 h)?
Its U2OS cell growth is 26.2226 and 29.6942 and 26.7407.

And the U2OS cell growth (U2OS cells; 500 nM, time 2 h)?
The U2OS cell growth was 28.1697 and 29.3576 and 35.4881.

And the U2OS cell growth (U2OS cells; 500 nM, time 4 h)?
Its U2OS cell growth is 24.6559 and 29.8656 and 34.6982.

What about the U2OS cell growth (U2OS cells; 500 nM, time 6 h) of the same compound?
Its U2OS cell growth is 27.3788 and 36.5331 and 38.1104.

And the U2OS cell growth (U2OS cells; 1 uM, time 12 h)?
Its U2OS cell growth is 42.1826.

And the U2OS cell growth (U2OS cells; 1 uM, time 0 h)?
Its U2OS cell growth is 33.676 and 37.1441 and 40.8786.

And the U2OS cell growth (U2OS cells; 1 uM, time 2 h)?
Its U2OS cell growth is 36.3349 and 37.5509 and 45.2384.

What about the U2OS cell growth (U2OS cells; 1 uM, time 4 h) of the same compound?
The U2OS cell growth was 33.5211 and 30.275 and 38.1541.

And the U2OS cell growth (U2OS cells; 1 uM, time 6 h)?
Its U2OS cell growth is 37.9722 and 40.3217 and 48.2479.

And the U2OS cell growth (U2OS cells; 3 uM, time 10 h)?
Its U2OS cell growth is 50.7454 and 57.0193 and 59.2136.

And the U2OS cell growth (U2OS cells; 3 uM, time 12 h)?
The U2OS cell growth was 41.453 and 34.0715 and 58.5093.

And the U2OS cell growth (U2OS cells; 3 uM, time 0 h)?
The U2OS cell growth was 41.5291 and 47.819 and 45.1855.

What about the U2OS cell growth (U2OS cells; 3 uM, time 2 h) of the same compound?
Its U2OS cell growth is 44.8462 and 48.6747 and 48.1364.

And the U2OS cell growth (U2OS cells; 3 uM, time 4 h)?
The U2OS cell growth was 43.175 and 44.1535 and 45.8798.

And the U2OS cell growth (U2OS cells; 3 uM, time 6 h)?
The U2OS cell growth was 48.3538 and 51.3151 and 53.1755.

And the U2OS cell growth (U2OS cells; 3 uM, time 8 h)?
Its U2OS cell growth is 48.5002 and 53.1189 and 54.8109.

What about the U2OS cell growth (U2OS cells; 5 uM, time 10 h) of the same compound?
The U2OS cell growth was 57.6709 and 52.4954 and 56.7999.

What about the U2OS cell growth (U2OS cells; 5 uM, time 0 h) of the same compound?
The U2OS cell growth was 41.1202 and 38.7556 and 46.8996.

What about the U2OS cell growth (U2OS cells; 5 uM, time 2 h) of the same compound?
Its U2OS cell growth is 48.6568 and 43.7565 and 48.1243.

And the U2OS cell growth (U2OS cells; 5 uM, time 4 h)?
Its U2OS cell growth is 49.6825 and 47.505 and 46.9675.

What about the U2OS cell growth (U2OS cells; 5 uM, time 6 h) of the same compound?
Its U2OS cell growth is 52.2007 and 50.4885 and 57.3887.

What about the U2OS cell growth (U2OS cells; 5 uM, time 8 h) of the same compound?
The U2OS cell growth was 51.5745 and 47.2991 and 53.416.

What about the U2OS cell growth (U2OS cells; 10 uM, time 10 h) of the same compound?
The U2OS cell growth was 46.9907 and 34.892 and 44.8825.

And the U2OS cell growth (U2OS cells; 10 uM, time 0 h)?
The U2OS cell growth was 34.3842 and 28.0059 and 32.3826.

What about the U2OS cell growth (U2OS cells; 10 uM, time 2 h) of the same compound?
The U2OS cell growth was 40.1489 and 30.903 and 35.6928.

And the U2OS cell growth (U2OS cells; 10 uM, time 4 h)?
The U2OS cell growth was 42.2655 and 32.6525 and 40.3474.

And the U2OS cell growth (U2OS cells; 10 uM, time 6 h)?
Its U2OS cell growth is 45.1844 and 33.7835 and 42.5534.

What about the U2OS cell growth (U2OS cells; 10 uM, time 8 h) of the same compound?
The U2OS cell growth was 38.9614 and 32.8145 and 39.1419.
